Assay results published in patent US8569336B2, “Compounds for the treatment of inflammatory disorders” (priority 2008, dated 2013).
Read-outs that look alike come from different tables or passages of the source.

How the values were obtained:
[1] = Area under the curve determinations of plasma levels in rats (rrAUC), oral 10 mg/kg; assay type: in vivo; details: blood collected 0.5-6 h post-dosing; for AUC: rat, plasma, read-out: RR AUC (rapid rat AUC, rrAUC)
[2] = target: T1, purified catalytic domain of recombinant human TACE (rhTACEc) (Homo sapiens, UniProt P78536, N452Q/S266A); test: TACE kinetic assay: cleavage of internally quenched peptide substrate TNF-FRET 2 (Ki); assay type: biochemical; details: TNF-FRET 2 substrate
T1 construct: 6xHis (C); made in house; host or cells: baculovirus/Hi5 insect cells
T1 sequence (P78536 215-477 S266A/N452Q): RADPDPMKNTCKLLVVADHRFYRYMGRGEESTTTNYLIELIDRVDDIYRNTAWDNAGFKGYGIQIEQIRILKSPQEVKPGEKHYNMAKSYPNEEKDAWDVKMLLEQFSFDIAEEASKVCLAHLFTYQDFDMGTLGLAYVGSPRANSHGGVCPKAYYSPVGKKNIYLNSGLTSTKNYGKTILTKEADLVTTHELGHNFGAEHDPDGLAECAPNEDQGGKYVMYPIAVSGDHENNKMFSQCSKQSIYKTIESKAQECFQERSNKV

[3] = system: TNF-α production from human whole blood; test: Inhibition of TNF-α production from human whole blood (hWBA), LPS stimulated, ELISA; assay type: cell-based; details: human whole blood diluted 1:1, LPS stimulated, TNF-α by ELISA, read-out: hWBA (IC50)

Row | Structure (SMILES) | AUC [1] | Ki ([2]; read-out: Ki) | IC50 ([3]; Homo sapiens) | RR AUC (rapid rat AUC, rrAUC) [1] | Ki ([2]; Ki) | IC50 [3]
1 | COc1ccc2c(c1)C(=O)N(C[C@@]1(c3cc4cnc(Cl)cc4o3)NC(=O)NC1=O)C2 [Compound 2285] | 22.2 µM·h | 0.00044 µM | 0.368 µM | – | – | –
2 | COc1ccc2c(c1)C(=O)N(C[C@@]1(c3cc4cnc(-c5cn[nH]c5)cc4o3)NC(=O)NC1=O)C2 [Compound 2286] | 0.046 µM·h | 0.000566 µM | 0.184 µM | – | – | –
3 | CCc1nccc2oc([C@]3(CN4Cc5ccc(OC)cc5C4=O)NC(=O)NC3=O)cc12 [Compound 2289] | 3.56 µM·h | 0.00025 µM | 0.358 µM | – | – | –
4 | CCc1cc2oc([C@]3(CN4Cc5ccc(OC)cc5C4=O)NC(=O)NC3=O)cc2cn1 [Compound 2290] | 20.3 µM·h | 0.000264 µM | 0.643 µM | – | – | –
5 | COc1ccc2c(c1)C(=O)N(C[C@@]1(c3cc4c(N5CCCC5=O)nccc4o3)NC(=O)NC1=O)C2 [Compound 2293] | 0.219 µM·h | 0.00126 µM | 0.531 µM | – | – | –
6 | COc1ccc2c(c1)C(=O)N(C[C@@]1(c3cc4c(C(C)O)nccc4o3)NC(=O)NC1=O)C2 (stereo partly drawn) [Compound 2294] | 0.154 µM·h | 0.000553 µM | 0.323 µM | – | – | –
7 | COc1ccc2c(c1)C(=O)N(C[C@@]1(c3cc4cc(NC(C)=O)cnc4o3)NC(=O)NC1=O)C2 [Compound 2295] | 0.044 µM·h | 0.00131 µM | 0.222 µM | – | – | –
8 | COc1ccc2c(c1)C(=O)N(C[C@@]1(c3cc4cc(Cl)ncc4o3)NC(=O)NC1=O)C2 [Compound 2300] | 22.7 µM·h | 0.00049 µM | 0.902 µM | – | – | –
9 | COc1ccc2c(c1)C(=O)N(C[C@@]1(c3cc4cc(F)ncc4o3)NC(=O)NC1=O)C2 [Compound 2304] | 9.31 µM·h | 0.000276 µM | 0.419 µM | – | – | –
10 | COc1ccc2c(c1)C(=O)N(C[C@@]1(c3cc4c(OC)nccc4o3)NC(=O)NC1=O)C2 [Compound 2307] | 41.4 µM·h | 0.000437 µM | 0.604 µM | – | – | –
11 | COc1ccc2c(c1)C(=O)N(C[C@@]1(c3cc4cnc(C)nc4o3)NC(=O)NC1=O)C2 [Compound 2309] | 18 µM·h | 0.000594 µM | 0.624 µM | – | – | –
12 | COc1ccc2c(c1F)C(=O)N(C[C@@]1(c3cc4cnccc4o3)NC(=O)NC1=O)C2 [Compound 2310] | 2.31 µM·h | 0.00037 µM | 0.197 µM | – | – | –
13 | COc1ccc2c(c1)C(=O)N(C[C@@]1(c3cc4nc(N)ccc4o3)NC(=O)NC1=O)C2 [Compound 2314] | – | – | 0.187 µM | 0.424 µM·h | 0.000511 µM | –
14 | COc1ccc2c(c1)C(=O)N(C[C@@]1(c3cc4nc(NS(=O)(=O)C5CC5)ccc4o3)NC(=O)NC1=O)C2 [Compound 2318] | – | 0.000579 µM | 0.518 µM | 0.015 µM·h | – | –
15 | COc1ccc2c(c1)C(=O)N(C[C@@]1(c3cc4nc(N5CCN(C(C)=O)CC5)ccc4o3)NC(=O)NC1=O)C2 [Compound 2400] | 0.439 µM·h | 0.000585 µM | 0.28 µM | – | – | –
16 | COc1ccc2c(c1)C(=O)N(C[C@@]1(c3cc4c(C(N)=O)nccc4o3)NC(=O)NC1=O)C2 [Compound 2401] | 1.43 µM·h | 0.00058 µM | 0.27 µM | – | – | –
17 | COc1ccc2c(c1)C(=O)N(C[C@@]1(c3cc4ccc(C(=O)NCCN(C)C)cc4o3)NC(=O)NC1=O)C2 [Compound 2412] | 0.104 µM·h | 0.00032 µM | 0.115 µM | – | – | –
18 | COc1ccc2c(c1)C(=O)N(C[C@@]1(c3cc4cc(C5(C(N)=O)CC5)ccc4o3)NC(=O)NC1=O)C2 [Compound 2421] | 0.037 µM·h | 0.00038 µM | 0.886 µM | – | – | –
19 | COc1ccc2c(c1)C(=O)N(C[C@@]1(c3cc4ccc(C(=O)N5CCNCC5)cc4o3)NC(=O)NC1=O)C2 [Compound 2424] | 0.013 µM·h | 0.00098 µM | 0.702 µM | – | – | –
20 | COc1ccc2c(c1)C(=O)N(C[C@@]1(c3cc4cc(C(=O)N5CCN(C)CC5)ccc4o3)NC(=O)NC1=O)C2 [Compound 2426] | 0.057 µM·h | – | 0.85 µM | – | 0.00126 µM | –

Row | Structure (SMILES) | AUC [1] | Ki ([2]; read-out: Ki) | IC50 ([3]; Homo sapiens) | RR AUC (rapid rat AUC, rrAUC) [1] | Ki ([2]; Ki) | IC50 [3]
21 | COc1ccc2c(c1)C(=O)N(C[C@@]1(c3cc4cnc(-c5cccc(C#N)c5)cc4o3)NC(=O)NC1=O)C2 [Compound 2431] | – | 0.0008 µM | – | 10.648 µM·h | – | 8.43 µM
22 | COc1ccc2c(c1)C(=O)N(C[C@@]1(c3cc4cc(C(=NO)N5CCN(C6CC6)CC5)ccc4o3)NC(=O)NC1=O)C2 [Compound 2455] | 0.013 µM·h | 0.00058 µM | 0.885 µM | – | – | –
23 | CNC(=O)c1ccc2oc([C@]3(CN4Cc5ccc(OC)cc5C4=O)NC(=O)NC3=O)cc2n1 [Compound 2462] | 1.07 µM·h | 0.000859 µM | 0.28 µM | – | – | –
24 | COc1ccc2c(c1)C(=O)N(C[C@@]1(c3cc4nc(-c5cccc(C#N)c5)ccc4o3)NC(=O)NC1=O)C2 [Compound 2470] | 22.1 µM·h | 0.000578 µM | 0.803 µM | – | – | –
25 | COc1ccc2c(c1)C(=O)N(C[C@@]1(c3cc4nc(-c5ccc(C#N)nc5)ccc4o3)NC(=O)NC1=O)C2 [Compound 2472] | 0.536 µM·h | 0.000745 µM | 1.61 µM | – | – | –
26 | COc1ccc2c(c1)C(=O)N(C[C@@]1(c3cc4nc(C#N)ccc4o3)NC(=O)NC1=O)C2 [Compound 2473] | 5.69 µM·h | 0.00032 µM | 0.564 µM | – | – | –
27 | COC(=O)Nc1ccc2oc([C@]3(CN4Cc5ccc(OC)cc5C4=O)NC(=O)NC3=O)cc2n1 [Compound 2474] | 15.5 µM·h | 0.00052 µM | 0.549 µM | – | – | –
28 | CNS(=O)(=O)c1cc2oc([C@]3(CN4Cc5ccc(OC)cc5C4=O)NC(=O)NC3=O)cc2cc1C [Compound 2480] | 0.212 µM·h | – | 1.39 µM | – | 0.00043 µM | –
29 | CNS(=O)(=O)c1ccc2oc([C@]3(CN4Cc5ccc(OC)cc5C4=O)NC(=O)NC3=O)cc2c1 [Compound 2481] | 0.89 µM·h | 0.00016 µM | 0.31 µM | – | – | –
30 | COc1ccc2c(c1)C(=O)N(C[C@@]1(c3cc4cnc(-c5cccc(C#N)c5)cc4o3)NC(=O)NC1=O)C2 [Compound 2489] | 10.6 µM·h | 0.000799 µM | 8.43 µM | – | – | –
31 | COc1ccc2c(c1F)C(=O)N(C[C@@]1(c3cc4cc5c(cc4o3)C(=O)NCC5)NC(=O)NC1=O)C2 [Compound 2491] | 0.972 µM·h | 0.000195 µM | 0.109 µM | – | – | –
32 | COc1ccc2c(c1F)C(=O)N(C[C@@]1(c3cc4cc5c(c(C)c4o3)C(=O)NC5)NC(=O)NC1=O)C2 [Compound 2497] | 1.05 µM·h | 0.00029 µM | 0.673 µM | – | – | –
33 | COc1ccc2c(c1F)C(=O)N(C[C@@]1(c3cc4cc5c(c(F)c4o3)C(=O)NC5)NC(=O)NC1=O)C2 [Compound 2499] | 1.08 µM·h | 0.00033 µM | 0.072 µM | – | – | –
34 | COc1ccc2c(c1F)C(=O)N(C[C@@]1(c3cc4cc(F)c5c(c4o3)CNC5=O)NC(=O)NC1=O)C2 [Compound 2501] | 0.448 µM·h | 0.00086 µM | 0.148 µM | – | – | –
35 | COc1ccc2c(c1F)C(=O)N(C[C@@]1(c3cc4cc5c(c(F)c4o3)C(=O)N(C)C5)NC(=O)NC1=O)C2 [Compound 2502] | 3.12 µM·h | 0.00069 µM | 0.381 µM | – | – | –
36 | COc1ccc2c(c1)C(=O)N(C[C@@]1(c3cc4c5c(ccc4o3)CNC5=O)NC(=O)NC1=O)C2 [Compound 2503] | 0.304 µM·h | 0.00036 µM | 0.17 µM | – | – | –
37 | COc1ccc2c(c1)C(=O)N(C[C@@]1(c3cc4c5c(ccc4o3)C(=O)NC5)NC(=O)NC1=O)C2 [Compound 2504] | 0.181 µM·h | 0.00045 µM | 0.189 µM | – | – | –
38 | COc1ccc2c(c1F)C(=O)N(C[C@@]1(c3cc4c5c(ccc4o3)CNC5=O)NC(=O)NC1=O)C2 [Compound 2505] | 1.12 µM·h | 0.0006 µM | 0.151 µM | – | – | –
39 | COc1ccc2c(c1F)C(=O)N(C[C@@]1(c3cc4c5c(ccc4o3)C(=O)NC5)NC(=O)NC1=O)C2 [Compound 2506] | 0.437 µM·h | 0.000323 µM | 0.156 µM | – | – | –
